Two molecules from patent publication US4524077A, “Liquid 2-hydroxy-4-methylthiobutyric acid and process for the preparation thereof” (priority 1983, dated 1985) can be followed below.

The nature of data set [1]: Extraction of diluted HCl hydrolyzate at 70° C. (Table VIII). Type of data set: physicochemical. The note with it: HMBA extract/raffinate, HCl hydrolyzate diluted 100:40 with water. The source says:
The phases were separated and analyzed for HMBA.
This work up and extraction was repeated for 1-butanol.

The nature of data set [2]: Gardner color of HMBA product. Type of data set: physicochemical.
Excerpt: This product has a total HMBA content, including monomer, dimers, and oligomers, of between about 80% and about 95% by weight, preferably 85% to 90% by weight, and a water content of between about 5% and about 20%, preferably between 10% and about 15% by weight. […] The ratio of the weight proportion of HMBA monomer to the weight proportion of the sum of dimers and other oligomers thereof is at least about 2.8, preferably at least about 5.7.

In the case of `CC(=O)CC(C)C` [Methyl isobutyl ketone], in data set [1], the “Distribution Coefficient” value came out at 2.4.
Take `CSCCC(O)C(=O)O` (racemic) [HMBA, 2-hydroxy-4-methylthiobutyric acid]: the Gardner color in data set [2] (88% by weight solution in water, Example 1, first method (methyl propyl ketone and water extraction)) amounted to 5; in data set [2] (Example 13, bottom product, 88.9% HMBA) it was 4. The “Color (Gardner)” value in data set [2] (Example 6, Product) is 3.
